Key:
Human squalene epoxidase = target: T1, Human squalene epoxidase (Homo sapiens, UniProt Q14534); assay: Human squalene epoxidase inhibition action; type: biochemical; conditions: solubilized Hep-G2 microsome fraction, 8 μM 3H-squalene, 37° C., 60 minutes, read-out: Inhibition rate at 3 μM concentration
T1 construct: The resultant supernatant is used as the squalene epoxidase fraction in the later-described test; endogenous in cells; host or cells: Hep-G2 human hepatoma cells (microsomes solubilized with Triton X-100)
T1 sequence (Q14534 whole entry): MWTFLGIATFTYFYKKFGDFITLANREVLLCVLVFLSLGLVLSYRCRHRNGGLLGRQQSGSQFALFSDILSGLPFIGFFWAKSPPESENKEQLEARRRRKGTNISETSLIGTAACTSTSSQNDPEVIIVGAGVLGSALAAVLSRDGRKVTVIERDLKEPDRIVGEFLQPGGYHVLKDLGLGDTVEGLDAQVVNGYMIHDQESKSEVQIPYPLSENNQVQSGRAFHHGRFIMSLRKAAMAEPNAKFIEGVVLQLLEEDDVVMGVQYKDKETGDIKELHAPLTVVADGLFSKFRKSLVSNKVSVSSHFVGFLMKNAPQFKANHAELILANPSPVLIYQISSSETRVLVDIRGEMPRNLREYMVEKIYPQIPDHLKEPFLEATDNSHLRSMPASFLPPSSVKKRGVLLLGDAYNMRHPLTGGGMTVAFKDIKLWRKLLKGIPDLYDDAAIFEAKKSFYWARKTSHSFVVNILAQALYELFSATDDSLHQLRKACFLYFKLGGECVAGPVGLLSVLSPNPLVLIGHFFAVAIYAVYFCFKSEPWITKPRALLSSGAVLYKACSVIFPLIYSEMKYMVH
Method: Squalene epoxidase inhibition action
(1) Preparation of squalene epoxidase
Human squalene epoxidase is prepared in accordance with the process disclosed in J. Biol. Chem., 245, 1670 (1970); ibid., 250, 1572 (1975).
Namely, human hepatoma (Hep-G2) cells are cultured at 37° C. under air containing 5% carbon dioxide. After completion of the culture, the cells are scraped and collected by centrifugation. The cells are suspended in 0.1M Tris-HCl buffer (pH 7.5) (1×10^8 cells/ml), the suspension is homogenized and centrifuged at 9750 Xg for 10 minutes, and then the sediment is washed with 0.1M Tris-HCl buffer (pH 7.5) and centrifuged at 105,000 Xg for 1 hour. The resultant microsome is suspended in 0.1M Tris-HCl buffer (pH 7.5) so that the protein amount becomes 20 mg/ml, and solubilized by stirring the suspension under ice cooling in the presence of 1% Triton X-100. After this solubilization treatment, the concentration of Triton X-100 is diluted to 0.125% with 1 mM EDTA and 1 mM dithiothreitol, and the dilution is centrifuged at 105,000 Xg for 1 hour. The resultant supernatant is used as the squalene epoxidase fraction in the later-described test.
(2) Assay of squalene epoxidase activity
Assay of human squalene epoxidase activity is carried out according to the method disclosed in J. Biol. Chem., 245, 1670 (1970).
Namely, 3 μl of a dimethyl sulfoxide solution of a test chemical is added to a solution consisting of 0.2 ml of the squalene epoxidase fraction [protein amount 0.4 mg, 0.1% Triton X-100, […] Tris-HCl buffer (pH 7.5)] prepared in (1), 100 μM FAD, 1 mM NADPH, 1 mM EDTA and 8 μM ^3 H-squalene-Tween 80 suspension to make the total volume 0.3 ml, and the mixture is subjected to reaction with shaking at 37° C. for 60 minutes. 0.3 ml of 10% potassium hydroxide-methanol solution is added to discontinue the reaction, and the mixture is heated at 75° C. for 1 hour. Then the non-saponified substance is extracted with petroleum ether and the extract is concentrated to dryness under a nitrogen stream. The resultant residue is dissolved in a small amount of ethyl ether, pre-coated Silicagel TCL is spotted with the extract, and development is carried out with benzeneethyl acetate (99.5:0.5). The position of the ^3 H-squalene-2,3 -epoxide in the TLC is confirmed using ergosterol acetate as a marker, and the ^3 H-squalene-2,3-epoxide portion in the TLC is cut out. The TLC piece is immersed in a toluene series scintillator and measurement is made using a liquid scintillation counter. Thereby, the inhibition rates (%) against squalene epoxidase at 3 μM concentration of compounds of this invention are determined, and the results are shown in the following Table 1.

cholesterol biosynthesis = assay: Inhibition test of in vivo cholesterol biosynthesis in rat; design: species or system rat (female SD); conditions: 3 mg/kg oral, n = 5, rat; for 14C-cholesterol, dpm: dpm of produced 14C-cholesterol in 1 ml of plasma, control values 2282-3218 dpm; for Cholesterol biosynthesis inhibition rate: versus control group
Method: Inhibition test of in vivo cholesterol biosynthesis
In this in vivo test, female SD rats (5 weeks old) are used. The rats are raised for 9 days under an environment where illumination is applied with reversed day and night (dark from 6 a.m. to 6 p.m.), and meanwhile they can freely ingest a solid feed and water. A test chemical is orally administered two hours before dark 6 o'clock when cholesterol biosynthesis becomes maximum. The compound is dissolved in a middle-chain fatty acid triglyceride, and orally administered at 3 mg/kg in an amount of 0.5 ml/100 g body weight. Further, the same volume of the solvent (vehicle) used is administered to control animals. […] after the administration of the test chemical, 20μ Ci/100 g body weight of ^14 C-sodium acetate (56 m Ci/m mole) is intraperitoneally administered to the rats, respectively. At dark 6 o'clock blood is sampled from the abdominal artery of each animal under ether anesthesia and centrifuged to separate the plasma.
2 ml of 15% potassium hydroxide-methanol solution is added per ml of the plasma, and the mixture is heated at 75° C. for 3 hours to carry out saponification. Each sample is extracted twice, each time with 2 ml of petroleum ether, and the extract is washed with 2 ml of distilled water. Finally each extract is evaporated to dryness under a nitrogen stream.
The resultant residue is dissolved in a small amount of ethyl ether, and a pre-coated silica gel TLC is spotted with the total amount of the solution. This plate is developed with a solvent system of hexane/ethyl ether/acetic acid (85:15:4). Coloring is carried out with iodine, and radioactivity at the cholesterol part is assayed using a liquid scintillation counter.
The results (Table 2) are expressed by dpm values of produced ^14 C-cholesterol existing in 1 ml of each plasma. Further, the inhibition of cholesterol biosynthesis is calculated by comparing the amounts of ^14 C-cholesterol biosynthesis between the test groups and the control group.

rats (SD male) = assay: Subacute toxicity test; type: in vivo, rat (SD male); conditions: 300 mg/kg per day oral for 7 days, 3 animals per group, 0.5% aqueous methylcellulose suspension
Method: Subacute toxicity test example
The compound of Example 34 was suspended in 0.5% aqueous methylcellulose solution and orally administered to groups of rats (SD male), each group consisting of 3 animals, at a rate of 300 mg/kg per day for 7 days.

SMILES | inhibition at 3 µM (Human squalene epoxidase) [%] | 14C-cholesterol, dpm (cholesterol biosynthesis) [dpm] | Cholesterol biosynthesis inhibition rate (cholesterol biosynthesis) [%] | death and other toxic symptoms (rats (SD male))
C/C(=C/c1cccc(OCc2cc(-c3ccsc3)cs2)c1)C/C=C/C#CC(C)(C)C [Example 22, 2-[3-[(1Z,4E)-2,8,8-trimethylnona-1,4-dien-6-ynyl]phenoxymethyl]-4-(3-thienyl)thiophene] | 100 |  |  | 
COCC(C/C=C/C#CC(C)(C)C)Cc1cccc(/C=C/c2cccc(-c3ccsc3)c2)c1 (stereo not drawn) [Example 34, (E,E)-3-[3-[2-[3-(2-methoxymethyl-8,8-dimethyl-4-nonen-6-ynyl)phenyl]ethenyl]phenyl]thiophene] | 100 | 347 | 85 | death and other toxic symptoms were not observed at all
C/C(=C/c1cccc(COc2cccc(-c3ccsc3)c2)c1)C/C=C/C#CC(C)(C)C [Example 21, 3-[3-[3-[(1Z,4E)-2,8,8-trimethylnona-1,4-dien-6-ynyl]phenylmethoxy]phenyl]thiophene] | 100 |  |  | 
C=CC(C/C=C/C#CC(C)(C)C)Cc1cccc(/C=C/c2cccc(-c3ccsc3)c2)c1 (stereo not drawn) [Example 44] | 100 |  |  | 
CC(O)C(C/C=C/C#CC(C)(C)C)Cc1cccc(/C=C/c2cccc(-c3ccsc3)c2)c1 (stereo not drawn) [Example 43, (E,E)-3-(6,6-dimethyl-2-hepten-4-ynyl)-4-[3-[2-[3-(3-thienyl)phenyl]ethenyl]phenyl]-2-butanol] | 100 |  |  | 
COCC(C/C=C/C#CC(C)(C)C)Cc1cccc(OCc2cccc(-c3ccsc3)c2)c1 (stereo not drawn) [Example 32, (E)-3-[3-[3-(2-methoxymethyl-8,8-dimethyl-4-nonen-6-ynyl)phenoxymethyl]phenyl]thiophene] | 100 |  |  | 
COC/C(=C/c1cccc(OCc2cc(-c3ccsc3)cs2)c1)C/C=C/C#CC(C)(C)C [Example 33, (E,E)-2-[3-(2-methoxymethyl-8,8-dimethylnona-1,4-dien-6-ynyl)phenoxymethyl]-4-(3-thienyl)thiophene] | 100 |  |  | 
COC(C)(C)C#C/C=C/C/C(=C\c1cccc(/C=C/c2cccc(-c3ccsc3)c2)c1)CO [Example 8, (E,E,E)-2-(6-methoxy-6-methyl-2-hepten-4-ynyl)-3-[3-[2-[3-(3-thienyl)phenyl]ethenyl]phenyl]-2-propen-1-ol] | 100 |  |  | 
CC(C)(C)C#C/C=C/C/C(=C\c1cccc(/C=C/c2cccc(-c3ccsc3)c2)c1)CO [Example 6, (E,E,E)-2-(6,6-dimethyl-2-hepten-4-ynyl)-3-[3-[2-[3-(3-thienyl)phenyl]ethenyl]phenyl]-2-propen-1-ol] | 100 | 871 | 73 | 
CC(C)(C)C#C/C=C/C/C(=C\c1cccc(COc2cccc(-c3ccsc3)c2)c1)CO [Example 4, (E,E)-2-(6,6-dimethyl-2-hepten-4-ynyl)-3-[3-[3-(3-thienyl)phenoxymethyl]phenyl]-2-propen-1-ol] | 100 |  |  | 
CC(C)(C)C#C/C=C/CC(CO)Cc1cccc(OCc2cccc(-c3ccsc3)c2)c1 (stereo not drawn) [Example 11, (E)-2-(6,6-dimethyl-2-hepten-4-ynyl)-3-[3-[3-(3-thienyl)phenylmethoxy]phenyl]propanol] | 88 |  |  | 
C/C(=C/c1cccc(/C=C/c2cccc(-c3ccsc3)c2)c1)C/C=C/C#CC(C)(C)C [Example 23, 3-[3-[2-[3-[(1Z,4E)-2,8,8-trimethylnona-1,4-dien-6-ynyl]phenyl]ethenyl]phenyl]thiophene] | 100 |  |  | 
CC(C)(C)C#C/C=C/C/C(=C\c1cccc(OCc2cc(-c3ccsc3)cs2)c1)CO [Example 5, (E,E)-2-(6,6-dimethyl-2-hepten-4-ynyl)-3-[3-[4-(3-thienyl)-2-thienylmethoxy]phenyl]-2-propen-1-ol] | 100 |  |  | 
COC(C)(C)C#CC#CC/C(=C\c1cccc(/C=C/c2cccc(-c3ccsc3)c2)c1)CO [Example 10, (E,E)-2-(6-methoxy-6-methyl-2,4-heptadiynyl)-3-[3-[2-[3-(3-thienyl)phenyl]ethenyl]phenyl]-2-propen-1-ol] | 100 |  |  | 
CC(C)(C)C#C/C=C/CC(CO)Cc1cccc(/C=C/c2cccc(-c3ccsc3)c2)c1 (stereo not drawn) [Example 12, (E,E)-2-(6,6-dimethyl-2-hepten-4-ynyl)-3-[3-[2-[3-(3-thienyl)phenyl]ethenyl]phenyl]propanol] | 100 | 1208 | 61 | 

The next lines start with results.

inhibition at 3 µM (Human squalene epoxidase) [%] | SMILES | 14C-cholesterol, dpm (cholesterol biosynthesis) [dpm] | Cholesterol biosynthesis inhibition rate (cholesterol biosynthesis) [%] | death and other toxic symptoms (rats (SD male))
100 | CSC/C(=C/CCCCOc1cccc(-c2ccsc2)c1)C/C=C/C#CC(C)(C)C [Example 42, (E,E)-3-[3-(12,12-dimethyl-6-methylthiomethyltrideca-5,8-dien-10-ynyloxy)phenyl]thiophene] |  |  | 
100 | CC(C)(C)C#C/C=C/C/C(=C\CCCCOc1cccc(-c2ccsc2)c1)CO [Example 2, (E,E)-2-(6,6-dimethyl-2-hepten-4-ynyl)-7-[3-(3-thienyl)phenoxy]-2-hepten-1-ol] |  |  | 
99 | C/C(=C/CCC/C=C/c1cccc(-c2ccsc2)c1)C/C=C/C#CC(C)(C)C [Example 18, 3-[3-[(1E,6Z,9E)-7,13,13-trimethyltetradeca-1,6,9-trien-11-ynyl]phenyl]thiophene] |  |  | 
100 | COC/C(=C/CCCCOc1cccc(-c2ccsc2)c1)C/C=C/C#CC(C)(C)C [Example 30, (E,E)-3-[3-(6-methoxymethyl-12,12-dimethyltrideca-5,8-dien-10-ynyloxy)phenyl]thiophene] |  |  | 
100 | COC/C(=C/CCC/C=C/c1cccc(-c2ccsc2)c1)C/C=C/C#CC(C)(C)C [Example 29, (E,E,E)-3-[3-(7-methoxymethyl-13,13-dimethyltetradeca-1,6,9-trien-11-ynyl)phenyl]thiophene] |  |  | 
100 | COC/C(=C/c1cccc(CCc2cccc(-c3ccsc3)c2)c1)C/C=C/C#CC(C)(C)C [Example 38, (E,E)-3-[3-[2-[3-(2-methoxymethyl-8,8-dimethylnona-1,4-dien-6-ynyl)phenyl]ethyl]phenyl]thiophene] | 350 | 85 | 
100 | CC(C)(C)C#C/C=C/C/C(=C\CCC/C=C/c1cccc(-c2ccsc2)c1)CO [Example 1] | 275 | 91 | 

Source: patent US5444084A, “Substituted heterocyclic derivative having squalene epoxidase inhibition action and its use” (Banyu Pharmaceutical Co., Ltd., priority 1992, dated 1995)
